Results reported in patent US12065456B2, “Boron-containing pharmacophore” (MASSACHUSETTS INSTITUTE OF TECHNOLOGY, priority 2019, dated 2024).
pIC50, pKi: −log10 of the molar value. Like-named read-outs stand apart in the source and are kept apart here.

What was measured:
[1] = Oxidation of boronic acids by hydrogen peroxide, continuous UV-absorbance assay; type: physicochemical; conditions: for kmonoanion (rel) / kmonoanion: experimental; for kmonoanion (rel): relative to PBA; for kmonoanion: second-order rate constant for oxidation of monoanionic tetrahedral state; for kobs: second-order rate constant of oxidation by hydrogen peroxide, physiological pH
Source text: Hydrogen peroxide is known to be the major reactive oxygen species in humans. The oxidation of phenylboronic acids by aqueous hydrogen peroxide yields a phenol and boric acid. […] The oxidation rates were first-order with respect to hydrogen peroxide and each boronic acid. The ensuing second-order rate constants varied with pH and were half-maximal for PBA and 2-HMPBA when pH=pKa. Oxidation rates increase in a pH-dependent manner after and before a pH-independent regime (FIG. 2). This observation is consistent with the existence of two pH-independent rate constants, k1 and k2. Whereas the oxidation rates of PBA and 2-HMPBA at physiological pH are similar to those for biological thiols, the comparative stability of CPBA to oxidation is unexpected (Table 1).
For PBA, 2-HMPBA, and 2-CPBA, the transition from a neutral trigonal state to a monoanionic tetrahedral state occurs when the pH surpasses the pKa (FIG. 3). […] The oxaborolone is differentiated by its existence as a monoanionic tetrahedral species above pH 1. The second-order rate constants for the oxidation for the monoanionic tetrahedral states of PBA, 2-HMPBA, 2-CPBA, and 2-CMPBA ((2-carboxymethyl)-phenylboronic acid) are listed in Table 2.

[2] = Affinity for saccharides, overall comparison; type: binding
Source text: (§1) PBA and 2-HMPBA are employed often for their ability to form esters with saccharides. As the affinity of boronic acids for saccharides is generally greatest near their pKa value, the low pKa1 of 2-CPBA portends a low affinity. The results of ^1H-NMR titration experiments with D-fructose, D-glucose, and N-acetylneuraminic acid (Neu5Ac) are consistent with this expectation (Table 3).

[3] = target: T1, pig liver esterase (PLE) (Sus scrofa, UniProt Q29550); assay: Inhibition of pig liver esterase, 4-nitrophenyl acetate substrate; type: biochemical; conditions: pH 7.5, substrate 1.0 mM
T1 sequence (Q29550 19-566): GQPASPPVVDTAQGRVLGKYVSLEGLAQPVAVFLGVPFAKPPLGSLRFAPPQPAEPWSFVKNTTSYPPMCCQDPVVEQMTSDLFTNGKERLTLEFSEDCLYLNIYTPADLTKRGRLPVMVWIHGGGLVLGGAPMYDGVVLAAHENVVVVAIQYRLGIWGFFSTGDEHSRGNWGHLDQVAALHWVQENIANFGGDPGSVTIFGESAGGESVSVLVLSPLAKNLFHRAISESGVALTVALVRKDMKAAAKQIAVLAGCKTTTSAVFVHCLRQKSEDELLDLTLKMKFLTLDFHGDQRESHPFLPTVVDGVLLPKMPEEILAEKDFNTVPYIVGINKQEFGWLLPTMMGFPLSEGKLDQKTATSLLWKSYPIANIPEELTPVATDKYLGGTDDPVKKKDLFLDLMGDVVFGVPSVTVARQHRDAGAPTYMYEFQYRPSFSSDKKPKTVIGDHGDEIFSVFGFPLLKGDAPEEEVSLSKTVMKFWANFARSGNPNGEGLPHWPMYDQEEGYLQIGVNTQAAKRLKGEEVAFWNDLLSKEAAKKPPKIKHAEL
Experimental: (§2) 2-CPBA was tested as an inhibitor of pig liver esterase (PLE). This test used 4-nitrophenyl acetate (PNPA) as a substrate. In addition, 2-CPBA was tested as an inhibitor of calf intestinal phosphatase (CIP). This test used 4-nitrophenyl phosphate. Substrates and PLE (15 units/mg) were obtained from Sigma-Aldrich (St. Louis, MO) as dry powders. CIP was obtained from Promega (Fitchburg, WI) as a solution (1 unit/μL). The hydrolysis of the two chromogenic substrates was monitored with a Tecan M1000 plate reader by measuring the absorbance of the 4-nitrophenol product at a wavelength of 405 nm. Assays were performed in a buffer of 20 mM Tris-HCl buffer, pH 7.5, in a clear, flat bottomed 96-well plate in 200-μL volumes. Solutions for CIP assays contained enzyme (0.003 units/μL) and substrate (1.0 mM). Solutions for PLE assays contained enzyme (0.01 units/mL) and substrate (1.0 mM). Both enzymes were assayed for inhibition by adding 2-CPBA (to a concentration of 0.78-100 mM) from a 250 mM stock solution that had its pH adjusted to that of the assay buffer. Initial velocities were measured by calculating ΔA405 nm over time. Velocities were fitted to the 4-parameter logistic equation with Prism software from GraphPad (San Diego, CA). No enzyme and uninhibited velocities were used to constrain the top and bottom parameters. Values of Ki were 80 mM for CIP and 10 mM for PLE.

[4] = target: T2, calf intestinal phosphatase (CIP) (Bos taurus, UniProt P19111); assay: Inhibition of calf intestinal phosphatase, 4-nitrophenyl phosphate substrate; type: biochemical; conditions: pH 7.5, substrate 1.0 mM
T2 construct: purchased Promega (Fitchburg, WI)
Experimental: as §2

[5] = target: T3, ribonuclease A (RNase A) (Bos taurus, UniProt P61823); assay: Inhibition of catalysis by ribonuclease A; type: biochemical; conditions: pH 6.0, substrate 6-FAM-(dA)rU(dA)2-6-TAMRA
T3 sequence (P61823 27-150): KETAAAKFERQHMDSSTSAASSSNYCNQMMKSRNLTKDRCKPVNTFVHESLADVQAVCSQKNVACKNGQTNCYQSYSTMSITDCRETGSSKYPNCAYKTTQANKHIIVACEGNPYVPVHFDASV
Experimental: The catalytic activity of ribonuclease A (RNase A) was assayed using 6-FAM-(dA)rU(dA)2-6-TAMRA as a substrate (Kelemen, B. R.; et al. Nucleic Acids Res. 1999, 27, 3696-3701). Assays were performed in 50 mM MES-NaOH buffer, pH 6.0, containing NaCl (100 mM) and RNase A (1 pM) in 200-μL solutions in a black, flat-bottomed 96-well plate and with a Tecan M1000 plate reader. An aqueous solution of 2-CPBA was prepared by dilution from a 500 mM stock that had its pH adjusted to that of the assay buffer. Initial velocities were measured from <5% turnover. Velocities were fitted to the 4-parameter logistic equation using Prism software from GraphPad. Uninhibited velocities were used to constrain the top parameter.

[6] = Affinity for saccharides, 1H-NMR titration; type: binding
Source text: as §1

[7] = oxidation of biological thiols, physiological pH; marked with footnote a; cited from earlier work
[8] = target: T4, Transthyretin (TTR) (Homo sapiens, UniProt P02766); assay: Inhibition of transthyretin fibril formation, light-scattering at 400 nm; type: biochemical; conditions: pH 4.4, 96-h incubation at 37° C.
T4 construct: made in house
Experimental: TTR was expressed and purified as previously reported (Smith, T. P., et al, J. Med. Chem., 2017, 60, 7820-7834). Inhibition of fibril formation was assayed as previously reported (Smith, et al.). Briefly, TTR (7.2 μM) was incubated with varying ratios of kinetic stabilizers (BOL or tafamidis) in 10 mM sodium phosphate buffer, pH 7.6, containing potassium chloride (100 mM) for 30 min at 37° C. Solutions were 2-fold diluted with 100 mM sodium acetate buffer, pH 4.4, containing potassium chloride (100 mM). Quadruplicate samples were plated in a clear 96-well plate. Fibril formation was assessed by measuring light-scattering at 400 nm immediately following acidification and after a 96-h incubation at 37° C. Data were analyzed with equation 1 below by comparing the change in light-scattering over the incubation with a control containing the protein and no inhibitor. The standard deviation of measurements was propagated through calculation in equation 1.

T2 sequence (P19111 20-506): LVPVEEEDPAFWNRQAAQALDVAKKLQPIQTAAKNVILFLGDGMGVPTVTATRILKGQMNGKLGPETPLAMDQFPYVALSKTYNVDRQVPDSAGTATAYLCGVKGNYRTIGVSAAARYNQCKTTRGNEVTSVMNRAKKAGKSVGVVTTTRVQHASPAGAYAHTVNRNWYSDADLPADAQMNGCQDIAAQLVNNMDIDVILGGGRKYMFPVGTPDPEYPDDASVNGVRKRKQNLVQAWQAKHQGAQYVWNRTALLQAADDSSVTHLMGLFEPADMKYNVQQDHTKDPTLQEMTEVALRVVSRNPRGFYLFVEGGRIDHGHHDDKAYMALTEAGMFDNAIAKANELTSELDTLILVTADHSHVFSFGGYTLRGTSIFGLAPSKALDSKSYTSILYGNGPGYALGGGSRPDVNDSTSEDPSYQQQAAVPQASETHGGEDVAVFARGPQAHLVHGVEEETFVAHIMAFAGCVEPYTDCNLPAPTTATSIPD

Row | Compound | kmonoanion (rel) [1] | kmonoanion [1] [M⁻¹ s⁻¹] | kobs [1] [M⁻¹ s⁻¹] | D-fructose, Ka [6] [M⁻¹] | D-glucose, Ka [6] [M⁻¹] | Neu5Ac, Ka [6] [M⁻¹] | kobs [7] [M⁻¹ s⁻¹] | other results
1 | O=C(O)Cc1ccccc1B(O)O [Compound 2-CMPBA, (2-carboxymethyl)-phenylboronic acid] | 0.00088 | 0.041 | 0.041 | – | – | – | – | –
2 | O=C(O)c1ccccc1B(O)O [Compound 2-CPBA, 2-carboxyphenylboronic acid] | 0.0000035 | 0.00016 | 0.00015 | 23 ± 2 | 1.7 ± 0.1 | 6.0 ± 0.5 | – | loss in affinity for saccharides versus 2-HMPBA ([2]; versus 2-HMPBA): about 13 fold; loss in affinity for saccharides versus PBA ([2]; versus PBA): about 4 fold; pKi [3]: 2.00; pKi [4]: 1.10; pIC50 [5]: 1.57
3 | OCc1ccccc1B(O)O [Compound 2-HMPBA, (2-hydroxymethyl)phenylboronic acid] | 0.10 | 4.8 | 2.4 | 336 ± 43 | 28 ± 4 | 43 ± 5 | – | –
4 | N[C@@H](CS)C(=O)O [Cysteine] | – | – | – | – | – | – | 2.9 | –
5 | N[C@@H](CCC(=O)N[C@@H](CS)C(=O)NCC(=O)O)C(=O)O [Glutathione] | – | – | – | – | – | – | 0.89 | –
6 | CC(=O)N[C@@H](CS)C(=O)O [N-Acetylcysteine] | – | – | – | – | – | – | 0.16 | –
7 | OB(O)c1ccccc1 [PBA, phenylboronic acid] | 1 | 46 | 2.4 | 128 ± 20 | 5 ± 1 | 13 ± 1 | – | –
8 | O=C(O)c1ccc2nc(-c3cc(Cl)cc(Cl)c3)oc2c1 [tafamidis] | – | – | – | – | – | – | – | % Fibril formation ([8]; TTR:Compound ratio 1:1): 29 ± 5%; % Fibril formation ([8]; TTR:Compound ratio 1:2): 1 ± 5%
